Assay results taken from PubChem BioAssay AID248 (DTP/NCI, 2004).
“And” between values parts separate entries of the source, which are not always exact repeats. Identical values can stand only once. Toxic doses and inconclusive results are not listed. No stated cut-off is given here; in the data, active means T/C of 150% or more; inactive means T/C below 125%.

System: L1210 leukemia ip in BDF1 mice, survival T/C
Test: NCI In Vivo Anticancer Drug Screen. Data for tumor model L1210 Leukemia (intraperitoneal) in B6D2F1 (BDF1) mice
Details: endpoint: mean survival time, higher = longer survival
In short: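 Tumor was transplanted into mice, which were then dosed with test compound or vehicle alone. Survival was recorded for each group, and the treated figure was expressed relative to the control figure.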

[1] = dose: 100.0 mg/kg/injection, schedule: Q04DX002 (ip), vehicle: saline with Tween-80
[2] = dose: 200.0 mg/kg/injection, schedule: Q04DX002 (ip), vehicle: saline with Tween-80
[3] = dose: 400.0 mg/kg/injection, schedule: Q04DX002 (ip), vehicle: saline with Tween-80
[4] = dose: 100.0 mg/kg/injection, schedule: Q01DX009 (ip), vehicle: Klucel (hydroxypropylcellulose) (HPC)
[5] = dose: 100.0 mg/kg/injection, schedule: Q04DX003 (ip), vehicle: Klucel (hydroxypropylcellulose) (HPC)
[6] = dose: 200.0 mg/kg/injection, schedule: Q01DX009 (ip), vehicle: Klucel (hydroxypropylcellulose) (HPC)
[7] = dose: 200.0 mg/kg/injection, schedule: Q04DX003 (ip), vehicle: Klucel (hydroxypropylcellulose) (HPC)
[8] = dose: 400.0 mg/kg/injection, schedule: Q04DX003 (ip), vehicle: Klucel (hydroxypropylcellulose) (HPC)
[9] = dose: 100.0 mg/kg/injection, schedule: Q01DX001 (ip), vehicle: carboxymethylcellulose (CMC)
[10] = dose: 200.0 mg/kg/injection, schedule: Q01DX001 (ip), vehicle: carboxymethylcellulose (CMC)

Measured: T/C

Cc1ccc(NC(=O)Oc2ccc(Br)cc2Br)c(Cl)c1
inactive: dose: 25.0 mg/kg/injection, schedule: Q01DX009 (ip), vehicle: saline with Tween-80 104 % of control and 106 % of control | dose: 50.0 mg/kg/injection, schedule: Q01DX009 (ip), vehicle: saline with Tween-80 101 % of control and 105 % of control | [1] 101 % of control and 107 % of control | dose: 100.0 mg/kg/injection, schedule: Q04DX003 (ip), vehicle: saline with Tween-80 103 % of control | [2] 97 % of control and 101 % of control | dose: 200.0 mg/kg/injection, schedule: Q04DX003 (ip), vehicle: saline with Tween-80 113 % of control | [3] 103 % of control and 111 % of control | dose: 400.0 mg/kg/injection, schedule: Q04DX003 (ip), vehicle: saline with Tween-80 103 % of control

O=Cc1ccc(N2CCCCC2)cc1
inactive: [4] 100 % of control | [5] 101 % of control | [6] 107 % of control | [7] 95 % of control | [8] 89 % of control

C[P+](c1ccc(F)cc1)(c1ccc(F)cc1)c1ccc(F)cc1
inactive: dose: 25.0 mg/kg/injection, schedule: Q01DX009 (ip), vehicle: Klucel (hydroxypropylcellulose) (HPC) 98 % of control | dose: 50.0 mg/kg/injection, schedule: Q01DX009 (ip), vehicle: Klucel (hydroxypropylcellulose) (HPC) 96 % of control | [5] 89 % of control

CN(CCNC(=O)C1C(c2ccccc2)C1c1ccccc1)C(=O)C1C(c2ccccc2)C1c1ccccc1 (stereo not drawn)
inactive: dose: 100.0 mg/kg/injection, schedule: Q04DX002 (ip), vehicle: Klucel (hydroxypropylcellulose) (HPC) 95 % of control | dose: 200.0 mg/kg/injection, schedule: Q04DX002 (ip), vehicle: Klucel (hydroxypropylcellulose) (HPC) 89 % of control | dose: 400.0 mg/kg/injection, schedule: Q04DX002 (ip), vehicle: Klucel (hydroxypropylcellulose) (HPC) 89 % of control

COc1ccc(CN2CCCN(Cc3ccc(OC)cc3OC)C2c2ccc(N(CCCl)CCCl)cc2F)c(OC)c1
inactive: dose: 50.0 mg/kg/injection, schedule: Q01DX001 (ip), vehicle: carboxymethylcellulose (CMC) 104 % of control | [9] 98 % of control | [10] 104 % of control | dose: 400.0 mg/kg/injection, schedule: Q01DX001 (ip), vehicle: carboxymethylcellulose (CMC) 106 % of control

CC1(C)COCN1CN1COCC1(C)C
inactive: dose: 100.0 mg/kg/injection, schedule: Q04DX003 (ip), vehicle: saline 101 % of control | dose: 200.0 mg/kg/injection, schedule: Q04DX003 (ip), vehicle: saline 95 % of control

O=[N+]([O-])c1ccc(S(=O)(=O)c2ccccc2)c([N+](=O)[O-])c1
inactive: dose: 6.0 mg/kg/injection, schedule: Q01DX001 (ip), vehicle: saline 93 % of control | dose: 12.0 mg/kg/injection, schedule: Q01DX001 (ip), vehicle: saline 100 % of control | dose: 25.0 mg/kg/injection, schedule: Q01DX001 (ip), vehicle: saline 91 % of control | dose: 50.0 mg/kg/injection, schedule: Q01DX001 (ip), vehicle: saline 100 % of control and 105 % of control | dose: 200.0 mg/kg/injection, schedule: Q01DX001 (ip), vehicle: saline 95 % of control

CCCC(C(=O)O)N(C)Cc1ccccc1 (stereo not drawn)
inactive: dose: 100.0 mg/kg/injection, schedule: Q01DX009 (ip), vehicle: acetone 92 % of control | dose: 200.0 mg/kg/injection, schedule: Q01DX009 (ip), vehicle: acetone 101 % of control | dose: 400.0 mg/kg/injection, schedule: Q01DX009 (ip), vehicle: acetone 97 % of control

O=C(N/N=C\c1cc(Br)cc(Br)c1O)N/N=C/c1cc(Br)cc(Br)c1O
inactive: [1] 108 % of control | [2] 95 % of control | [3] 92 % of control

C=C(C)C1CCC2(C=O)CCC3(C)C(CCC4C5(C)CCC(OC6CCCCO6)C(C)(C)C5CCC43C)C12 (stereo not drawn)
inactive: dose: 25.0 mg/kg/injection, schedule: Q04DX002 (ip), vehicle: saline with Tween-80 90 % of control | [1] 90 % of control

Clc1ccc(C2=NC3=CC(Cl)C=CC3=CC2C2CO2)cc1 (stereo not drawn)
inactive: [4] 96 % of control | [5] 94 % of control | [6] 98 % of control | [7] 94 % of control | [8] 98 % of control

O=c1[nH]cc(S)c(=O)[nH]1
inactive: [9] 96 % of control | dose: 100.0 mg/kg/injection, schedule: Q01DX015 (ip), vehicle: carboxymethylcellulose (CMC) 102 % of control | [10] 100 % of control

OCCCN1CCN(CCCC2c3ccccc3Sc3ccc(Cl)cc32)CC1 (stereo not drawn)
inactive: dose: 25.0 mg/kg/injection, schedule: Q04DX003 (ip), vehicle: saline 102 % of control | dose: 50.0 mg/kg/injection, schedule: Q04DX003 (ip), vehicle: saline 109 % of control
